Measurements: patent publication US4257773A, “Assay method and compounds” (Burroughs Wellcome Co., priority 1979, dated 1981)

Tested on: opiate receptor
Assay: Specific binding affinity of radio-iodinated peaks for the opiate receptor
Details: monoiodinated (first peak) compared with diiodinated (second peak) compound
Method: The material comprising this peak was applied to a Sephadex 2-(diethylamino)ethyl ether column and eluted with sodium borate buffer (12.5 mM, pH 9.0, 0.1 N sodium chloride).

In the case of `CC(C)C[C@H](NC(=O)[C@H](Cc1ccccc1)NC(=O)CNC(=O)[C@@H](C)NC(=O)[C@@H](N)Cc1ccc(O)c([125I])c1)C(=O)O` [material of the first peak, H.Tyr(3-^125 I).D-Ala.Gly.Phe.Leu.OH], the “specific binding affinity (for the opiate receptor)” value is reported as “greater specific binding affinity (for the opiate receptor) than that of the second peak”.
